# Measurements taken from publication PMC3919114, “Induction of Apoptosis of 2,4′,6-Trihydroxybenzophenone in HT-29 Colon Carcinoma Cell Line” (BioMed Research International, 2014).
# Like-named read-outs stand apart in the source and are kept apart here.
# What was measured:
# [1] = tested on: breast cancer cell line (MDA-MB231); conditions: cited from earlier work
# Mcl-1 = assay: Western blot analysis, Mcl-1 expression in HT-29 cells; type: cell-based, human; conditions: IC50 concentration (115 μM), 24 h, 48 h and 72 h
# Experimental: (§1) The HT-29 cells were cultured in […] tissue culture flasks and incubated at 37°C under 5% CO2 until confluent. […] After incubation at the various times, the cells were detached with accutase in PBS, washed thoroughly with PBS twice, and were then lysed with protein lysis buffer (Sigma, USA) containingprotease inhibitors and shaken by hand for 15 min at room temperature. The lysates were then centrifuged at 13,000 ×g for 20 min at 4°C and the supernatant was collected for protein samples and kept at […] until SDS page analysis. Protein concentration was determined using a BCA (bicinchoninic acid) protein assay kit (Invitrogen, USA) with bovine serum albumin as the standard.
# (§2) The proteins were transferred into polyvinylidene difluoride (PVDF) membranes by semidry transfer. Bands were visualized using the Western Max Horseradish Peroxidase Chromogenic Detection Kit protocol (AMRESCO, USA). Briefly, the membranes were blocked in a blocking buffer for 30 min at room temperature. Primary antibodies for Bcl-2, Bcl-xL, PUMA, Mcl-1, Bak, Bad, and Bax were then added. The membranes were incubated with gentle agitation at room temperature overnight. After incubation, the membranes were washed with washing buffer two times and then incubated with Western Max HRP Conjugated Anti-Rabbit Antibody for 45 min at room temperature with gentle agitation. […]
# PUMA = assay: Western blot analysis, PUMA expression in HT-29 cells; type: cell-based, human; conditions: IC50 concentration (115 μM), 24 h, 48 h and 72 h
# Experimental: as §1, §2
# [2] = tested on: HT-29 human colon carcinoma cell line; assay: MTT cell proliferation assay, HT-29; type: cell-based; conditions: read-out: IC50 against HT-29 cells
# Experimental: (§3) The HT-29 human colon carcinoma cell line, WRL-68 normal liver cells, and MRC-5 normal lung fibroblast […] cells were purchased from the American Type Culture Collection (ATCC, USA). The cells were placed into tissue culture flasks and grown in a medium containing 10% fetal bovine serum, 100 μg/mL of penicillin/streptomycin, and 100 μg/mL of amphotericin B at 37°C in a humidified atmosphere containing 5% CO2.
# (§4) The MTT […]) cell proliferation assay was based on the protocol described by Mosmann. Briefly, cells from a confluent tissue culture flask were spun at 1,000 rpm for five minutes and resuspended in 1.0 mL of growth medium. Cells were then seeded into 96 well plates and incubated in a CO2 incubator at 37°C for 24 hours to allow the cells to adhere and achieve 70%–80% confluence. After 24 hours, the media was removed and the test compound, at varying concentrations of 4, 38, 96, 192, and 384 μM with 200 μL of 10% medium, was added to the respective wells. For negative control, untreated cells were used. After 24 h, 48 h, and 72 h of incubation, respectively, each well had 10 μL of the MTT stock solution added to the test sample and was then incubated in a dark place for three hours. The medium with the MTT solution was removed and 200 μL of absolute DMSO was added to each well in order to solubilise the formazan crystals that had formed. The total amount of formazan crystals was examined by measuring the absorbance at 540 nm using an ELISA plate reader. The assay was carried out in triplicate.
# (§5) The percentage of inhibition (%) was calculated using the following formula: (1) percentage of inhibition (%) =OD control−OD sample×100% /OD control, where OD = optical densities.
# (§6) The IC50 value is the concentration of test compounds which cause 50% inhibition or cell death, average from three experiments, and was obtained by plotting the percentage of inhibition versus the concentration of test compounds [13].
# Bcl-2 = assay: Western blot analysis, Bcl-2 expression in HT-29 cells; type: cell-based, human; conditions: IC50 concentration (115 μM), 72 h treatment only
# Experimental: as §1, §2
# [3] = tested on: human normal liver cells (WRL-68); assay: MTT cell proliferation assay, WRL-68; type: cell-based
# Experimental: as §3, §4, §5, §6
# [4] = Annexin V-FITC/PI staining assay by flow cytometry; type: cell-based, human; conditions: human, HT-29 cells, 24 h, read-out: viable cells (LL)
# Experimental: (§7) The quantification of cell death was determined by flow cytometry using the Annexin V-FITC apoptosis detection kit according to the manufacturer's instructions (BD Pharmingen, BD Bioscience, USA). Briefly, 1 × 10^6 of the HT-29 cells were seeded into each Petri dish (30 mm) and after a 24 h incubation, various concentrations of the test compound were added and incubated for 24 h, 48 h, and 72 h, respectively. The cells were then washed with PBS, suspended in annexin V binding buffer and then added to an annexin V-FITC solution and propidium iodide (PI) for 10 minutes at room temperature. The samples were then analyzed using FACScalibur (BD Bioscience, USA) using CellQuest Pro analysis software (Becton Dickinson, USA).
# (§8) Cells were treated with various concentrations (96 μM, 192 μM, and 288 μM) of the compound for 24 h, 48 h, and 72 h, respectively. They were then harvested with accutase and phosphate buffer saline and centrifuged, after which they were stained with Annexin V-FITC and propidium iodide and analyzed in FACScalibur with CellQuest Pro software. The number of early apoptotic cells, late apoptotic cells, live cells, and necrotic cells was counted in every 10,000 cells of each treatment. All data was expressed as the mean ± SD (standard deviation). The standard deviation was calculated for the treated and untreated cells. The SPSS program (version 16.0) found a significant difference between the treated and untreated cells ([…]).
# HT-29 cells [5] = assay: Annexin V-FITC/PI staining assay by flow cytometry; type: cell-based, human
# Experimental: as §7, §8
# HT-29 cells [6] = assay: Morphological detection of apoptosis (inverted and phase-contrast microscopy); type: cell-based, human; conditions: IC50 concentrations (115 μM), 24 h, 48 h, 72 h
# Experimental: HT-29 cells were placed in a Petri dish (30 mm) at a density of 1 × 10^5 cells/well plate and grown for 24 h. […] After the various incubation periods, morphological changes in the apoptotic bodies of the HT-29 cells were examined by inverted and phase-contrast microscopy (Leica, Germany) and photographed.
# [7] = tested on: human normal fibroblast lung cells (MRC-5); assay: MTT cell proliferation assay, MRC-5; type: cell-based
# Experimental: as §3, §4, §5, §6
# [8] = set-up: method as in earlier work; conditions: from ethyl acetate extract of the leaves; cited from earlier work
# Bak = assay: Western blot analysis, Bak expression in HT-29 cells; type: cell-based, human; conditions: IC50 concentration (115 μM), 72 h treatment only
# Experimental: as §1, §2
# HT-29 cells [9] = assay: Cell cycle analysis by flow cytometry (PI staining); type: cell-based, human; conditions: IC50 value of 115 μM
# Experimental: After incubation, the cells were collected by trypsinization, fixed in ethanol, washed in warm PBS, and incubated at −20°C, overnight. Next, the cells were washed with 1 mL of cold PBS and stained with propidium iodide according to the Cycle TEST PLUS DNA Reagent Kit (Becton Dickinson, USA) protocol. The cells were sorted in a FACScalibur flow cytometer (BD, USA) using CellQuest Pro software (Becton Dickinson, USA) and a quantitative analysis of the cell cycle distribution was performed using a trial version of the ModFit LT software, version 4.0.
# The HT-29 cells were treated with isolated bioactive 2,4′,6-trihydroxy-4-methoxybenzophenone for 24 h, 48 h, and 72 h. Treated and untreated cells were harvested with accutase and phosphate buffer saline, centrifuged, and stained with propidium iodide. The HT-29 cells were then analyzed by flow cytometry using CellQuest Pro software and their distribution in different phases of the cell cycle is shown in Figure 6(a). The resulting data were tabulated using the trial version of the ModFit L.V 4.0 software to represent a percentage of each cell cycle phase (G0/G1, S, and G2/M), as shown in Figure 6(b).
# [10] = tested on: human esophageal cancer cells (TE-2); conditions: cited from earlier work
structure (smiles),measurement,setting,value
"COc1cc(O)c(C(=O)c2ccc(O)cc2)c(O)c1 [2,4′,6-trihydroxy-4-methoxybenzophenone]",antiproliferation activity against MDA-MB231,[1],displayed antiproliferation activity
same,expression of Mcl-1,Mcl-1,significantly upregulated
same,expression of PUMA,PUMA,significantly upregulated
same,IC50,[2]; 24 h,172 ± 2.21 µM
same,IC50,[2]; 48 h,144 ± 2.66 µM
same,IC50,[2]; 72 h,122 ± 1.69 µM
same,expression of Bcl-2,Bcl-2,only up-regulated for 72 h treatment
same,IC50,"[3]; WRL68, 24 h",≥ 384 µM
same,IC50,"[3]; WRL68, 48 h",331 ± 0.69 µM
same,IC50,"[3]; WRL68, 72 h",235 ± 1.03 µM
same,"viability at 24 h, 96 µM",[4]; 96 μM,69.3%
same,"viability at 24 h, 192 µM",[4]; 192 μM,35.2%
same,"viability at 24 h, 288 µM",[4]; 288 μM,23.8%
same,early apoptotic cells (LR),"HT-29 cells [5]; 96 μM, 24 h",2.96%
same,late apoptotic cells (UR),"HT-29 cells [5]; 96 μM, 24 h",12.28%
same,primary necrotic cells (UL),"HT-29 cells [5]; 96 μM, 24 h",15.49%
same,early apoptotic cells (LR),"HT-29 cells [5]; 96 μM, 48 h",10.87%
same,late apoptotic cells (UR),"HT-29 cells [5]; 96 μM, 48 h",31.48%
same,primary necrotic cells (UL),"HT-29 cells [5]; 96 μM, 48 h",8.04%
same,early apoptotic cells (LR),"HT-29 cells [5]; 96 μM, 72 h",1.33%
same,late apoptotic or secondary necrotic cells (UR),"HT-29 cells [5]; 96 μM, 72 h",15.77%
same,live cells (LL),"HT-29 cells [5]; 96 μM, 72 h",52.21%
same,primary necrotic cells (UL),"HT-29 cells [5]; 96 μM, 72 h",30.69%
same,early apoptotic cells (LR),"HT-29 cells [5]; 192 μM, 24 h",8.46%
same,late apoptotic cells (UR),"HT-29 cells [5]; 192 μM, 24 h",25.98%
same,primary necrotic cells (UL),"HT-29 cells [5]; 192 μM, 24 h",30.40%
same,early apoptotic cells (LR),"HT-29 cells [5]; 192 μM, 48 h",4.74%
same,live cells (LL),"HT-29 cells [5]; 192 μM, 48 h",34.22%
same,primary necrotic cells (UL),"HT-29 cells [5]; 192 μM, 48 h",35.05%
same,early apoptotic cells (LR),"HT-29 cells [5]; 192 μM, 72 h",14.34%
same,late apoptotic or secondary necrotic cells (UR),"HT-29 cells [5]; 192 μM, 72 h",58.97%
same,live cells (LL),"HT-29 cells [5]; 192 μM, 72 h",12.73%
same,primary necrotic cells (UL),"HT-29 cells [5]; 192 μM, 72 h",13.96%
same,early apoptotic cells (LR),"HT-29 cells [5]; 288 μM, 24 h",6.71%
same,late apoptotic cells (UR),"HT-29 cells [5]; 288 μM, 24 h",50.81%
same,primary necrotic cells (UL),"HT-29 cells [5]; 288 μM, 24 h",19.63%
same,early apoptotic cells (LR),"HT-29 cells [5]; 288 μM, 48 h",8.51%
same,late apoptotic cells (UR),"HT-29 cells [5]; 288 μM, 48 h",54.67%
same,live cells (LL),"HT-29 cells [5]; 288 μM, 48 h",26.80%
same,primary necrotic cells (UL),"HT-29 cells [5]; 288 μM, 48 h",10.02%
same,early apoptotic cells (LR),"HT-29 cells [5]; 288 μM, 72 h",0.28%
same,late apoptotic or secondary necrotic cells (UR),"HT-29 cells [5]; 288 μM, 72 h",8.45%
same,live cells (LL),"HT-29 cells [5]; 288 μM, 72 h",54.64%
same,primary necrotic cells (UL),"HT-29 cells [5]; 288 μM, 72 h",36.63%
same,morphological changes associated to apoptosis,HT-29 cells [6],"membrane blebbing, cell shrinkage, chromatin condensation, apoptotic nuclei, and DNA fragmentation"
same,IC50,"[7]; MRC5, 24 h",≥ 384 µM
same,IC50,"[7]; MRC5, 48 h",269 ± 0.96 µM
same,IC50,"[7]; MRC5, 72 h",356 ± 1.21 µM
same,antioxidant activity,[8],good antioxidant activity
same,expression of Bak,Bak,only up-regulated for 72 h treatment
same,cell percentage in the G2/M phase,HT-29 cells [9]; 24 h,13.61%
same,cell percentage in the S phase,HT-29 cells [9]; 24 h,15.70%
same,percentage of diploid cells in the G0/G1 phase,HT-29 cells [9]; 24 h,70.69%
same,effect on cell cycle,"HT-29 cells [9]; 24 h, 48 h, 72 h, time-dependent",cell cycle arrest in the G0/G1 phase
same,cell percentage in the G2/M phase,HT-29 cells [9]; 48 h,3.17%
same,cell percentage in the S phase,HT-29 cells [9]; 48 h,16.85%
same,percentage of diploid cells in the G0/G1 phase,HT-29 cells [9]; 48 h,79.98%
same,cell percentage in the G2/M phase,HT-29 cells [9]; 72 h,3.20%
same,cell percentage in the S phase,HT-29 cells [9]; 72 h,8.60%
same,percentage of diploid cells in the G0/G1 phase,HT-29 cells [9]; 72 h,88.21%
"COc1cc(O)c(C(=O)c2ccc(O)cc2)c(O[C@@H]2O[C@H](CO)[C@@H](O)[C@H](O)[C@H]2O)c1 [4′,6-dihydroxy-4-methoxybenzophenone 2-o-β-D-glucopyranoside]",antiproliferation activity against MDA-MB231,[1],displayed antiproliferation activity
O=C(O)c1cc(O)c(O)c(O)c1 [Gallic acid],anticancer properties against TE-2 cells,[10],possess anticancer properties
